8 compounds from PubChem BioAssay (NCI) can be followed below.

Among the test systems are EKVX NSCLC; A498 renal; SK-MEL-5 melanoma; HL-60(TB) leukemia; HS 578T breast; HCT-15 colon; HT29 colon; SK-OV-3 ovarian; MDA-MB-435; ACHN renal.
Common to all, as to assay: NCI anticancer screen, dose series, 48 h

The structures appear in SMILES notation. Where “and” joins values, the source holds several entries; their conditions need not be identical. Equal values may be shown once.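 Growth conditions: 96-well plates. Treatment: test compound, 48 hours, 5 concentrations. Analysis: linear interpolation between bracketing concentrations; unreached endpoints set to highest concentration. The concentration for 50% growth inhibition is given as GI50. TGI denotes the concentration required for complete inhibition of growth.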 Some results are limits rather than exact numbers.

Take `COc1c(OC(C)C)cc2cc(O)c(C(=O)NC3Cc4ccc(c(Cl)n4)O[C@@H]4C=C5C#C/C(=C\C#CC6OC56C4OC4CC(C)(O)C(O)C(C)O4)C(OC4CC(O)C(N(C)C)C(C)O4)COC3=O)cc2c1OC` (some centres not stated): the GI50 was > 36.3 µM and 37.5 µg/mL in the test with EKVX NSCLC; 0.168 µg/mL with A498 renal; > 36.3 µM and 0.546 µg/mL in the test on SK-MEL-5 melanoma; 27.5 µM and 0.019 µg/mL with HL-60(TB) leukemia; > 36.3 µM and 9.57 µg/mL with HCT-15 colon; > 36.3 µM and 0.714 µg/mL in the test with HT29 colon. In addition, the GI50 with SK-OV-3 ovarian is 2.75 µg/mL; in the test with ACHN renal, 9.33 µM and 0.303 µg/mL. Moreover, the TGI with EKVX NSCLC is > 36.3 µM and 37.5 µg/mL; with A498 renal, > 36.3 µM and 8.7 µg/mL; in the test with SK-MEL-5 melanoma, > 36.3 µM and 10.1 µg/mL; in the test with HL-60(TB) leukemia it was > 36.3 µM and 0.336 µg/mL; with HS 578T breast it was > 36.3 µM; in the test with HCT-15 colon it was > 36.3 µM and 37.5 µg/mL. The TGI in the test with HT29 colon is > 36.3 µM and 37.5 µg/mL; in the test on SK-OV-3 ovarian, 37.5 µg/mL; in the test on MDA-MB-435 it was > 36.3 µM; in the test with ACHN renal, > 36.3 µM and 5.69 µg/mL.
As to `Cc1ccc(-n2c(-c3cc4c([nH]c5ccccc54)c(-c4cccc(O)c4)n3)n[nH]c2=S)cc1`, the GI50 in the test with EKVX NSCLC was 1.95 µM; with A498 renal it was 0.263 µM; in the test with SK-MEL-5 melanoma, 1.32 µM; with HL-60(TB) leukemia it was 1.08 µM; with HS 578T breast it was 1.74 µM; in the test with HCT-15 colon, 0.61 µM. Also, the GI50 is 1.36 µM in the test with HT29 colon, 1.18 µM in the test with SK-OV-3 ovarian, 0.649 µM with MDA-MB-435 and 2.37 µM with ACHN renal. In addition, the TGI with EKVX NSCLC came out at 11.1 µM; in the test with A498 renal, 0.738 µM; with SK-MEL-5 melanoma, 3.31 µM; with HL-60(TB) leukemia, 3.43 µM; with HS 578T breast, 36.2 µM; with HCT-15 colon, 6.94 µM. Further, the TGI in the test with HT29 colon was 3.68 µM; in the test on SK-OV-3 ovarian it was 4.44 µM; in the test with MDA-MB-435, 2.75 µM; with ACHN renal, 15.4 µM.
For `O=C(c1ccco1)c1c(C(F)(F)F)n([O-])c2cc(F)c(F)cc2[n+]1=O`, the GI50 was 0.57 µM in the test with EKVX NSCLC; 4.88 µM in the test on A498 renal; 0.256 µM in the test on SK-MEL-5 melanoma; 0.4 µM in the test on HL-60(TB) leukemia; 0.655 µM with HS 578T breast; < 0.0464 µM with HCT-15 colon. For the same compound, the GI50 was 0.609 µM with HT29 colon, 0.346 µM with SK-OV-3 ovarian, 0.553 µM in the test with MDA-MB-435 and 0.122 µM with ACHN renal. For the same compound, the TGI worked out at 1.26 µM with EKVX NSCLC; 17.3 µM with A498 renal; 1.23 µM in the test with SK-MEL-5 melanoma; 2.74 µM with HL-60(TB) leukemia; 2.63 µM in the test on HS 578T breast; 0.149 µM with HCT-15 colon. Also, the TGI in the test with HT29 colon is > 100 µM; in the test on SK-OV-3 ovarian, 1.11 µM; in the test on MDA-MB-435, 3.45 µM; in the test with ACHN renal, 0.256 µM.
Regarding `COc1ccc(-c2[nH]c3ccccc3c2/C=C(\C#N)S(=O)(=O)c2ccccc2)cc1`, the GI50 with EKVX NSCLC was 1.25 µM; with A498 renal it was 1.14 µM; in the test with SK-MEL-5 melanoma it was 0.343 µM; in the test with HL-60(TB) leukemia, 0.287 µM; with HS 578T breast it was 0.671 µM; in the test with HCT-15 colon, 0.552 µM. Further, the GI50 in the test with HT29 colon is 0.309 µM; in the test with SK-OV-3 ovarian it was 0.516 µM; in the test with MDA-MB-435, 0.204 µM; with ACHN renal, 1.91 µM. The TGI with EKVX NSCLC is > 100 µM; in the test with A498 renal it was > 28.6 µM; in the test with SK-MEL-5 melanoma, 2.73 µM; in the test with HL-60(TB) leukemia it was 1.5 µM; in the test with HS 578T breast, > 46 µM; in the test on HCT-15 colon, > 48 µM. Besides, the TGI is > 25.3 µM in the test on SK-OV-3 ovarian, 0.642 µM in the test on MDA-MB-435 and > 100 µM in the test with ACHN renal.
For the compound `C#CCNC(=O)NC(CCCCNC(=O)OCc1ccccc1)C(=O)OCc1ccccc1` (configuration not stated), the TGI was > 100 µM in the test with EKVX NSCLC; 53.6 µM in the test with A498 renal; 35.1 µM in the test with SK-MEL-5 melanoma; 46.7 µM in the test with HL-60(TB) leukemia; > 100 µM with HS 578T breast; > 100 µM with HCT-15 colon. The TGI in the test with HT29 colon is > 56.2 µM; in the test with SK-OV-3 ovarian, > 100 µM; with MDA-MB-435, 57.1 µM; in the test with ACHN renal it was > 100 µM.
For `N#Cc1cccc(Nc2ncc(-c3ccccc3)o2)c1`, the GI50 was 11 µM with EKVX NSCLC; > 22.2 µM with A498 renal; 13 µM with SK-MEL-5 melanoma; 11 µM in the test with HL-60(TB) leukemia; 8.52 µM in the test on HS 578T breast; 16.8 µM with HCT-15 colon. In addition, the GI50 in the test on HT29 colon is > 25 µM; with SK-OV-3 ovarian, 8.4 µM; with MDA-MB-435, > 25 µM; in the test on ACHN renal, 8.4 µM. Also, the TGI in the test with EKVX NSCLC, in the test with A498 renal, with SK-MEL-5 melanoma, in the test on HL-60(TB) leukemia, in the test on HS 578T breast and in the test with HCT-15 colon was > 25 µM throughout. Also, the TGI was > 25 µM in the test with HT29 colon, 19.6 µM with SK-OV-3 ovarian, > 25 µM with MDA-MB-435 and > 25 µM in the test with ACHN renal.
As for `O=c1[nH]c(=S)[nH]c(-c2ccccc2)c1Cc1c(O)ccc2ccccc12`, the TGI in the test on EKVX NSCLC is 64.4 µM; in the test on A498 renal it was 44.7 µM; with SK-MEL-5 melanoma, 43.8 µM; in the test on HL-60(TB) leukemia it was 50.5 µM; in the test with HS 578T breast it was > 100 µM; with HCT-15 colon it was > 100 µM. In addition, the TGI in the test with HT29 colon was > 100 µM; in the test with SK-OV-3 ovarian, > 100 µM; in the test on MDA-MB-435 it was 93 µM; in the test on ACHN renal, > 100 µM.
With `N#Cc1c(NC(=O)c2ccccc2F)sc2c1CCCC2`, the GI50 with EKVX NSCLC was > 25 µM; in the test on A498 renal, > 16.7 µM; in the test on SK-MEL-5 melanoma, > 22 µM; in the test on HL-60(TB) leukemia it was > 25 µM; with HS 578T breast it was > 21.9 µM; with HCT-15 colon, 21.1 µM. Besides, the GI50 was 10.4 µM with HT29 colon, > 25 µM in the test on SK-OV-3 ovarian, 1.31 µM in the test with MDA-MB-435 and > 25 µM in the test on ACHN renal. The TGI with EKVX NSCLC, with A498 renal, in the test with SK-MEL-5 melanoma, in the test on HL-60(TB) leukemia, in the test on HS 578T breast and in the test on HCT-15 colon was > 25 µM in each case. In addition, the TGI in the test on HT29 colon was > 25 µM; in the test on SK-OV-3 ovarian it was > 25 µM; in the test on MDA-MB-435 it was > 12.1 µM; with ACHN renal, > 25 µM.
